In patent US20250332178A1, “METHODS OF TREATING MYCOBACTERIAL INFECTIONS USING TETRACYCLINE COMPOUNDS” (priority 2018, published 2025) one finds MIC data, which are given here for 45 compounds.

In brackets after ≈: the same amount, converted by molar mass. A value given as a limit tells only on which side of the number the result lay.

In one assay the test system is H37Rv strain of Mycobacterium tuberculosis. Description: MIC against H37Rv strain. To be noted: H37Rv. Format: cell-based. How it is done: The purpose of this study was to test activity of selected tetracycline compounds against the H37Rv strain of Mycobacterium tuberculosis. Minimum inhibitory concentrations (MIC) of different tetracycline compounds against H37Rv strain were determined and are shown in Table 8.
One may read the MIC as the least concentration at which growth counts as inhibited. As for `CC(C)CNCc1cc(N(C)C)c2c(c1O)C(=O)C1=C(O)[C@]3(O)C(=O)C(C(N)=O)=C(O)[C@@H](N(C)C)[C@@H]3C[C@@H]1C2` [Compound 14], the MIC was determined as 16 µg/mL (≈ 29.5 µM).

The assay is the same for the next values; noted with them: Mycobacterium tuberculosis, H37RV.
`CN(C)c1cc(CNC(=O)Oc2ccccc2)c(O)c2c1C[C@H]1C[C@H]3[C@H](N(C)C)C(O)=C(C(N)=O)C(=O)[C@@]3(O)C(O)=C1C2=O` [Compound 10] yielded an MIC of more than 32 µg/mL.

For `Cc1ccc(OC(=O)NCc2cc(N(C)C)c3c(c2O)C(=O)C2=C(O)[C@]4(O)C(=O)C(C(N)=O)=C(O)[C@@H](N(C)C)[C@@H]4C[C@@H]2C3)cc1` [Compound 20], the MIC was more than 32 µg/mL. Still for that read-out and setting: the value for `CN(C)c1cc(CNC(=O)Oc2ccc(Br)cc2)c(O)c2c1C[C@H]1C[C@H]3[C@H](N(C)C)C(O)=C(C(N)=O)C(=O)[C@@]3(O)C(O)=C1C2=O` [Compound 21] was 16 µg/mL (≈ 23.3 µM); that for `CN(C)c1cc(CNC(=O)Oc2ccc(F)cc2)c(O)c2c1C[C@H]1C[C@H]3[C@H](N(C)C)C(O)=C(C(N)=O)C(=O)[C@@]3(O)C(O)=C1C2=O` [Compound 23] was 32 µg/mL (≈ 51.2 µM); that for `CC(CF)NCc1cc(N(C)C)c2c(c1O)C(=O)C1=C(O)[C@]3(O)C(=O)C(C(N)=O)=C(O)C(N(C)C)[C@@H]3C[C@@H]1C2` (stereo partly shown) [Compound 42] was 32 µg/mL (≈ 58.5 µM).

The assay is the same for the next values; noted with them: Mycobacterium tuberculosis, H37RV; read-out: MIC.
With `CCc1cc(CNC(=O)c2cccnc2)c(O)c2c1C[C@H]1C[C@H]3[C@H](N(C)C)C(O)=C(C(N)=O)C(=O)[C@@]3(O)C(O)=C1C2=O` [Compound 1], the MIC was more than 32 µg/mL. The same measure, in the same setting: the value for `CN(C)[C@@H]1C(O)=C(C(N)=O)C(=O)[C@@]2(O)C(O)=C3C(=O)c4c(O)c(CNC(=O)c5cccnc5)cc(CCC5CCCCC5)c4C[C@H]3C[C@@H]12` [Compound 2] was more than 32 µg/mL. On the same count and under the same terms, the value for `CC(=O)NCc1cc(N(C)C)c2c(c1O)C(=O)C1=C(O)[C@]3(O)C(=O)C(C(N)=O)=C(O)C(N(C)C)[C@@H]3C[C@@H]1C2` (stereo partly shown) [Compound 3] was more than 32 µg/mL; that for `CCc1cc(CC)c2c(c1O)C(=O)C1=C(O)[C@]3(O)C(=O)C(C(N)=O)=C(O)[C@@H](N(C)C)[C@@H]3C[C@@H]1C2` [Compound 4] was more than 32 µg/mL. For the compound `CN(C)c1cc(CNCCc2ccccc2)c(O)c2c1C[C@H]1C[C@H]3C(N(C)C)C(O)=C(C(N)=O)C(=O)[C@@]3(O)C(O)=C1C2=O` (stereo partly shown) [Compound 5], the minimum inhibitory concentration (MIC) was more than 32 µg/mL. Regarding `CCc1cc(CNC(C)=O)c(O)c2c1C[C@H]1C[C@H]3C(N(C)C)C(O)=C(C(N)=O)C(=O)[C@@]3(O)C(O)=C1C2=O` (stereo partly shown) [Compound 6], the MIC is more than 32 µg/mL. Still for that read-out and setting: the value for `CN(C)c1cc(CNC(=O)OCC(C)(C)C)c(O)c2c1C[C@H]1C[C@H]3[C@H](N(C)C)C(O)=C(C(N)=O)C(=O)[C@@]3(O)C(O)=C1C2=O` [Compound 8] was more than 32 µg/mL. On to `C=CCCOC(=O)NCc1cc(N(C)C)c2c(c1O)C(=O)C1=C(O)[C@]3(O)C(=O)C(C(N)=O)=C(O)[C@@H](N(C)C)[C@@H]3C[C@@H]1C2` [Compound 9], for which the MIC was more than 32 µg/mL. Still for that read-out and setting: the same measure for `CC(C)COC(=O)NCc1cc(N(C)C)c2c(c1O)C(=O)C1=C(O)[C@]3(O)C(=O)C(C(N)=O)=C(O)[C@H](N(C)C)[C@@H]3C[C@@H]1C2` [Compound 11]: more than 32 µg/mL.

For the compound `CCCCOC(=O)NCc1cc(N(C)C)c2c(c1O)C(=O)C1=C(O)[C@]3(O)C(=O)C(C(N)=O)=C(O)[C@H](N(C)C)[C@@H]3C[C@@H]1C2` [Compound 12], the MIC was more than 32 µg/mL. Same read-out and setting: the same measure for `CCOC(=O)NCc1cc(N(C)C)c2c(c1O)C(=O)C1=C(O)[C@]3(O)C(=O)C(C(N)=O)=C(O)[C@H](N(C)C)[C@@H]3C[C@@H]1C2` [Compound 13]: 16 µg/mL (≈ 28.6 µM); for `CC(C)CNCc1cc(N(C)C)c2c(c1O)C(=O)C1=C(O)[C@]3(O)C(=O)C(C(N)=O)=C(O)[C@@H](N(C)C)[C@@H]3C[C@@H]1C2` [Compound 14]: more than 32 µg/mL. The same measure, in the same setting: the same measure for `CCCCNCc1cc(N(C)C)c2c(c1O)C(=O)C1=C(O)[C@]3(O)C(=O)C(C(N)=O)=C(O)[C@H](N(C)C)[C@@H]3C[C@@H]1C2` [Compound 15]: 32 µg/mL (≈ 59 µM); for `CCCCN(CCCC)Cc1cc(N(C)C)c2c(c1O)C(=O)C1=C(O)[C@]3(O)C(=O)C(C(N)=O)=C(O)C(N(C)C)[C@@H]3C[C@@H]1C2` (stereo partly shown) [Compound 16]: more than 32 µg/mL; for `CN(C)c1cc(CNCC(C)(C)C)c(O)c2c1C[C@H]1C[C@H]3[C@H](N(C)C)C(O)=C(C(N)=O)C(=O)[C@@]3(O)C(O)=C1C2=O` [Compound 17]: 32 µg/mL (≈ 57.5 µM). On the same count and under the same terms, the value for `CCCCCCOC(=O)NCc1cc(N(C)C)c2c(c1O)C(=O)C1=C(O)[C@]3(O)C(=O)C(C(N)=O)=C(O)[C@@H](N(C)C)[C@@H]3C[C@@H]1C2` [Compound 18] was more than 32 µg/mL; that for `COCCOC(=O)NCc1cc(N(C)C)c2c(c1O)C(=O)C1=C(O)[C@]3(O)C(=O)C(C(N)=O)=C(O)[C@@H](N(C)C)[C@@H]3C[C@@H]1C2` [Compound 19] was more than 32 µg/mL; that for `CN(C)c1cc(CNC(=O)OCC(Cl)(Cl)Cl)c(O)c2c1C[C@H]1C[C@H]3[C@H](N(C)C)C(O)=C(C(N)=O)C(=O)[C@@]3(O)C(O)=C1C2=O` [Compound 22] was more than 32 µg/mL. On to `CN(C)c1cc(CNC(=O)Nc2ccc3c(c2)OCO3)c(O)c2c1C[C@H]1C[C@H]3[C@H](N(C)C)C(O)=C(C(N)=O)C(=O)[C@@]3(O)C(O)=C1C2=O` [Compound 24], for which the MIC is more than 32 µg/mL. The same measure, in the same setting: the value for `CC(=O)c1ccc(NC(=O)NCc2cc(N(C)C)c3c(c2O)C(=O)C2=C(O)[C@]4(O)C(=O)C(C(N)=O)=C(O)[C@@H](N(C)C)[C@@H]4C[C@@H]2C3)cc1` [Compound 25] was more than 32 µg/mL; that for `CN(C)c1ccc(NC(=O)NCc2cc(N(C)C)c3c(c2O)C(=O)C2=C(O)[C@]4(O)C(=O)C(C(N)=O)=C(O)[C@@H](N(C)C)[C@@H]4C[C@@H]2C3)cc1` [Compound 26] was 32 µg/mL (≈ 49.3 µM). The same measure, in the same setting: the value for `CN(C)c1cc(CNC(=O)Nc2ccc(OC(F)(F)F)cc2)c(O)c2c1C[C@H]1C[C@H]3[C@H](N(C)C)C(O)=C(C(N)=O)C(=O)[C@@]3(O)C(O)=C1C2=O` [Compound 27] was 8 µg/mL (≈ 11.6 µM). Same read-out and setting: the same measure for `CN(C)c1ccc(-c2cc(CN)c(O)c3c2C[C@H]2C[C@H]4[C@@H](N(C)C)C(O)=C(C(N)=O)C(=O)[C@@]4(O)C(O)=C2C3=O)cc1` [Compound 28]: more than 32 µg/mL.

Take `CN(C)c1cc(CNCC(C)(C)C)c(O)c2c1C[C@H]1C[C@H]3C(N(C)C)C(O)=C(C(N)=O)C(=O)[C@@]3(O)C(O)=C1C2=O` (stereo partly shown) [Compound 29]: the MIC worked out at 32 µg/mL (≈ 57.5 µM).

With `CCc1cc(CNCC(C)C)c(O)c2c1C[C@H]1C[C@H]3[C@H](N(C)C)C(O)=C(C(N)=O)C(=O)[C@@]3(O)C(O)=C1C2=O` [Compound 30], the MIC is more than 32 µg/mL. The same measure, in the same setting: the value for `CN(C)C1C(O)=C(C(N)=O)C(=O)[C@@]2(O)C(O)=C3C(=O)c4c(O)c(CNC(=O)C5CC5)cc(-c5ccc(C(C)(C)C)cc5)c4C[C@H]3C[C@@H]12` (stereo partly shown) [Compound 31] was more than 32 µg/mL. The same measure, in the same setting: the same measure for `CN(C)[C@H]1C(O)=C(C(N)=O)C(=O)[C@@]2(O)C(O)=C3C(=O)c4c(O)c(CN)cc(-c5ccccc5)c4C[C@H]3C[C@@H]12` [Compound 32]: more than 32 µg/mL; for `C[C@H]1c2ccc(CNCC(C)(C)C)c(O)c2C(=O)C2=C(O)[C@]3(O)C(=O)C(C(N)=O)=C(O)[C@@H](N(C)C)[C@@H]3[C@@H](O)[C@@H]21` [Compound 33]: more than 32 µg/mL; for `CC(C)CNCc1ccc2c(c1O)C(=O)C1=C(O)[C@]3(O)C(=O)C(C(N)=O)=C(O)[C@@H](N(C)C)[C@@H]3[C@@H](O)[C@@H]1[C@H]2C` [Compound 34]: 32 µg/mL (≈ 60.4 µM).

Consider `C[C@H]1c2ccc(CNCCc3ccccc3)c(O)c2C(=O)C2=C(O)[C@]3(O)C(=O)C(C(N)=O)=C(O)[C@@H](N(C)C)[C@@H]3[C@@H](O)[C@@H]21` [Compound 35], for which the MIC was more than 32 µg/mL. The same measure, in the same setting: the same measure for `CCc1cc(CNC(=O)CN(C)C)c(O)c2c1C[C@H]1C[C@H]3[C@@H](N(C)C)C(O)=C(C(N)=O)C(=O)[C@@]3(O)C(O)=C1C2=O` [Compound 36]: 32 µg/mL (≈ 57.5 µM). Still for that read-out and setting: the same measure for `C[C@H]1c2ccc(CNC(=O)c3ccccc3)c(O)c2C(=O)C2=C(O)[C@]3(O)C(=O)C(C(N)=O)=C(O)[C@@H](N(C)C)[C@@H]3[C@@H](O)[C@@H]21` [Compound 37]: more than 32 µg/mL; for `CN(C)c1cc(CNCc2cccn2C)c(O)c2c1C[C@H]1C[C@H]3[C@H](N(C)C)C(O)=C(C(N)=O)C(=O)[C@@]3(O)C(O)=C1C2=O` [Compound 38]: more than 32 µg/mL. The same measure, in the same setting: the same measure for `CC(C)NCc1cc(N(C)C)c2c(c1O)C(=O)C1=C(O)[C@]3(O)C(=O)C(C(N)=O)=C(O)[C@H](N(C)C)[C@@H]3C[C@@H]1C2` [Compound 39]: more than 32 µg/mL; for `CN(C)Cc1cc(N(C)C)c2c(c1O)C(=O)C1=C(O)[C@]3(O)C(=O)C(C(N)=O)=C(O)[C@@H](N(C)C)[C@@H]3C[C@@H]1C2` [Compound 40]: 32 µg/mL (≈ 62.2 µM).

Regarding `Cc1cc(CNCc2cc(N(C)C)c3c(c2O)C(=O)C2=C(O)[C@]4(O)C(=O)C(C(N)=O)=C(O)[C@@H](N(C)C)[C@@H]4C[C@@H]2C3)oc1C` [Compound 41], the minimal inhibitory concentration (MIC) is more than 32 µg/mL.

With `CN(C)c1cc(CNC2CCCC2)c(O)c2c1C[C@H]1C[C@H]3C(N(C)C)C(O)=C(C(N)=O)C(=O)[C@@]3(O)C(O)=C1C2=O` (stereo partly shown) [Compound 43], the MIC was more than 32 µg/mL. Still for that read-out and setting: the value for `CC(CCO)NCc1cc(N(C)C)c2c(c1O)C(=O)C1=C(O)[C@]3(O)C(=O)C(C(N)=O)=C(O)[C@H](N(C)C)[C@@H]3C[C@@H]1C2` (stereo partly shown) [Compound 44] was more than 32 µg/mL. Take `CC(C)CNCc1cc(N(C)C)c2c(c1O)C(=O)C1=C(O)[C@]3(O)C(=O)C(C(N)=O)=C(O)C(N(C)C)[C@@H]3C[C@@H]1C2` (stereo partly shown) [Compound 45]: the MIC came out at 32 µg/mL (≈ 59 µM). Same read-out and setting: the value for `CCNCC(=O)NCc1cc(N(C)C)c2c(c1O)C(=O)C1=C(O)[C@]3(O)C(=O)C(C(N)=O)=C(O)[C@H](N(C)C)[C@@H]3C[C@@H]1C2` [Compound 46] was 32 µg/mL (≈ 56 µM).
